Measurements published in patent US20250057848A1, “GAL475 COMPOSITIONS AND METHODS OF USE THEREOF” (NEURIM PHARMACEUTICALS (1991) LTD., priority 2023, published 2025).

Assays:
[1] = 28 day repeated oral dose with 14-day recovery in Beagle dogs (body weight gain, food consumption); assay type: in vivo, Beagle dog; conditions: for decrease in food consumption / decrease in body weight gain: 7.5, 15, or 30 mg/kg/day oral; for decrease in food consumption: dosing phase; for decrease in body weight gain: dosing phase up to 28 days
Description: Thirty-two (16/sex) dogs were randomly assigned to 4 groups and orally administered vehicle (2% (w/v) CMC-Na, 1% (v/v) Tween 80 in 0.1 M phosphate buffer at pH 7.4) or Gal-475*2HCl at 7.5, 15, or 30 mg/kg/day once daily for up to 28 days.

[2] = biological target: 5-HT2B(h) (Homo sapiens (Human), UniProt P41595); assay: Receptor binding assay, % inhibition of radioligand binding, 5-HT2B(h); conditions: 30 micromolar GAL475; agonist radioligand; read-out: % inhibition of the binding of radioactively labelled ligand
Chain of 5-HT2B(h) (P41595 whole entry, the tested form may be a part): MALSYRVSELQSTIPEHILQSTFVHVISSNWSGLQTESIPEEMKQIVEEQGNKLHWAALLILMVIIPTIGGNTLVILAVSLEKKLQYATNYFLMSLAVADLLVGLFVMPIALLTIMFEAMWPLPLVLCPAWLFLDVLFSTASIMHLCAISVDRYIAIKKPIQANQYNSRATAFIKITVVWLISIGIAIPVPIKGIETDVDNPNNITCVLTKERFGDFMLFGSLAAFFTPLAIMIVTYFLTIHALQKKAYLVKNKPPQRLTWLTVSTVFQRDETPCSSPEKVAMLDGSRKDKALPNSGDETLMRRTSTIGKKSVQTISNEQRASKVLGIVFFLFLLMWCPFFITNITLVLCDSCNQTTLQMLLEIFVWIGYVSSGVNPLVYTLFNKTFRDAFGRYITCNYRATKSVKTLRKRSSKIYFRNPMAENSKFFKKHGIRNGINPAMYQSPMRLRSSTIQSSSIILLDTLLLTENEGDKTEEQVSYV
Description: (§1) GAL475 (30 micromolar) was tested in multiple receptor binding assays. The binding was calculated as a % inhibition of the binding of a radioactively labelled ligand specific for each target.
(§2) However, the potency of GAL 475 at these receptors was lower than 1 micromolar and therefore not considered to be pharmacologically interesting. […] GAL475 was subsequently tested for PAM activity at the human NTS1 (FAST-0330I) and NTS2 (FAST-0331I) receptors, at 100-50,000 nanomolar concentrations. Agonist activity of GAL475 is expressed as a percentage of the activity of the reference agonist (Neurotensin) at its EC100 (maximal response) concentration. Antagonist activity of GAL475 is expressed as a percentage of the inhibition of reference agonist activity at its EC80 […] concentration. The assays were conducted with recombinant cell lines.

[3] = biological target: 5-HT5a(h) (Homo sapiens (Human), UniProt P47898); assay: Receptor binding assay, % inhibition of radioligand binding, 5-HT5a(h); conditions: 30 micromolar GAL475; agonist radioligand; read-out: % inhibition of the binding of radioactively labelled ligand
Chain of 5-HT5a(h) (P47898 whole entry, the tested form may be a part): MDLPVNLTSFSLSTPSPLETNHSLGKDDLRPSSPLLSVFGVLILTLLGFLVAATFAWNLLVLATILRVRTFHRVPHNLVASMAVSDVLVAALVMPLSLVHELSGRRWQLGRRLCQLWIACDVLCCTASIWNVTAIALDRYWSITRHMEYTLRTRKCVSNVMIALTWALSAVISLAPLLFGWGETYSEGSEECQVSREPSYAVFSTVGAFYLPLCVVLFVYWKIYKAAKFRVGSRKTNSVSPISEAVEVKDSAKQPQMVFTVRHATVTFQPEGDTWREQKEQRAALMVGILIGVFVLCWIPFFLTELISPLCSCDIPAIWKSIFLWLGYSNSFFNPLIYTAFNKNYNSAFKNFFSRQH
Description: as §1, §2

[4] = biological target: 5-HT7 (h) (Homo sapiens (Human), UniProt P34969); assay: Receptor binding assay, % inhibition of radioligand binding, 5-HT7 (h); conditions: 30 micromolar GAL475; agonist radioligand; read-out: % inhibition of the binding of radioactively labelled ligand
Chain of 5-HT7 (h) (P34969 whole entry, the tested form may be a part): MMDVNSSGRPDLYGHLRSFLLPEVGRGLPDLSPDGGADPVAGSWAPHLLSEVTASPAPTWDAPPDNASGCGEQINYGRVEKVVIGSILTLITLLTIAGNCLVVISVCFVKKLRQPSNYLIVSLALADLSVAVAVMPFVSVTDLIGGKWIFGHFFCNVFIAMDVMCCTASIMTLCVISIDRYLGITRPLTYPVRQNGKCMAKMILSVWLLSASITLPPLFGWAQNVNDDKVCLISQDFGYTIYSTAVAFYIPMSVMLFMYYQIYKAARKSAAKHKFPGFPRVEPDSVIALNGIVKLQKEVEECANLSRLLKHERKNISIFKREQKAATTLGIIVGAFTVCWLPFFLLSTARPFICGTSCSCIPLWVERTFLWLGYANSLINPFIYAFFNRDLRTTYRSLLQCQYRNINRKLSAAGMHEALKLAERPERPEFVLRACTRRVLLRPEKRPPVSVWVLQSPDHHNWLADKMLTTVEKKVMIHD
Description: as §1, §2

[5] = tested on: al adrenoreceptor (non-selective); assay: Receptor binding assay, % inhibition of radioligand binding, al adrenoreceptor (non-selective); conditions: 30 micromolar GAL475; antagonist radioligand
Description: as §1, §2

[6] = tested on: Na+channel (site 2); assay: Receptor binding assay, % inhibition of radioligand binding, Na+channel (site 2); conditions: 30 micromolar GAL475; antagonist radioligand
Description: as §1, §2

[7] = biological target: human NTS1 (Homo sapiens (Human), UniProt P30989); assay: Positive allosteric modulator (PAM) activity at human NTS1 (FAST-0330I), recombinant CHO-K1-mt aequorin cells; assay type: cell-based; conditions: 100-50,000 nM
Chain of human NTS1 (P30989 whole entry): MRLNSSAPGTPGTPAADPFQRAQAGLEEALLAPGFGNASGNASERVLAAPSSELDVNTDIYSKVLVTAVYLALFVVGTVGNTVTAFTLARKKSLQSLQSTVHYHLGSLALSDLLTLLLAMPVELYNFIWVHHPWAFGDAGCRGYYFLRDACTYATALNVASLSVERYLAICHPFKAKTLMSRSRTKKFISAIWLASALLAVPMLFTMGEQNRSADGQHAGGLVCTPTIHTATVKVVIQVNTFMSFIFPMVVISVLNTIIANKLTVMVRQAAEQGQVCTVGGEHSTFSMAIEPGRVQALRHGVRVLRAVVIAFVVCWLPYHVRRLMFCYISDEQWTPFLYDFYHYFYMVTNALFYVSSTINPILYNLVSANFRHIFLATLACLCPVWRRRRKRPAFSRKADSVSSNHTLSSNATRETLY
From the text: as §2
(§3) GAL475 (100-50,000 nM) was tested for positive allosteric modulator (PAM) activity at the human NTS1 (FAST-0330I) and NTS2 (FAST-0331I) receptors (Tables 2 and 3).

[8] = biological target: human NTS2 (Homo sapiens (Human), UniProt O95665); assay: Positive allosteric modulator (PAM) activity at human NTS2 (FAST-0331I), recombinant CHO-K1-mt aequorin cells; assay type: cell-based; conditions: 100-50,000 nM
Chain of human NTS2 (O95665 whole entry): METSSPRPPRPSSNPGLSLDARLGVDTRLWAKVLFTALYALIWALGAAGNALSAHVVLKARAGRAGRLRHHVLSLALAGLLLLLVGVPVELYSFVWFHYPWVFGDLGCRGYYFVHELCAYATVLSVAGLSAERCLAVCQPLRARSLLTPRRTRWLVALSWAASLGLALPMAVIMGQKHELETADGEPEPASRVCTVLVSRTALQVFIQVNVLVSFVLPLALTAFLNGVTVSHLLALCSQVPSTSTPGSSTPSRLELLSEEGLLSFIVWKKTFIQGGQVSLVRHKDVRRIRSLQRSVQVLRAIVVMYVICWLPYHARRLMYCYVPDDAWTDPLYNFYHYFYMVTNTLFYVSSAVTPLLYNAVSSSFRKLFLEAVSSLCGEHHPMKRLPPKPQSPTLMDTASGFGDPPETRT
From the text: as §2, §3

[9] = 28 days repeated oral dose with 14-days recovery in rats (body weight, food consumption, tolerability); assay type: in vivo, rat; conditions: for overall body weight gain Day −1 to Day 28 compared to that of the controls: 80 mg/kg/day oral; for group mean body weight compared to the controls: >40 mg/kg/day oral, end of dosing phase (28 days)
Description: One hundred and forty-two (71/sex) rats were randomly assigned to 4 groups and given vehicle [2% (w/v) CMC-Na, 1% (v/v) Tween 80 in 0.1 M phosphate buffer at pH 7.4±0.2] or Gal-475*2HCl at 20, 40 or 80 mg/kg/day once daily for 28 days by the oral gavage route.

[10] = Acute gastric emptying (charcoal slurry) in rats; assay type: in vivo, Sprague-Dawley rat; conditions: 3 mg/kg IV
Description: Naive male Sprague-Dawley rats (239-297 g) were used to evaluate the effect on gastric emptying of a single dose of 3 mg/kg GAL-475 IV.
Rats were fasted 16-18 hours prior to the start of the experiment and then were given a bolus dose of either vehicle (1% tween-80 2% CMC) or GAL475 (3 mg/kg, IV) via the lateral tail vein. 5 minutes after dosing, rats were gavaged with a charcoal slurry (5 ml/kg, 10% charcoal in 2.5% Arabic gum from acacia tree) and then returned to their cages. 20 minutes after receiving the slurry, rats were euthanized using CO2. The stomachs were excised, weighed, emptied, washed and reweighed. Gastric content was calculated as the difference between full and empty weights. Increased gastric content was interpreted as a decrease in gastric emptying food retention).

[11] = Phase 1 single escalating oral dose study in healthy male volunteers (body weight, tolerability); assay type: in vivo, human
Description: The effects of an oral dose of GAL-475 (capsules of 450 mg) in 12 healthy male volunteers was tested in a Phase 1, randomized, placebo-controlled, double-blind, first in man single escalating dose study.
The study drug (GAL475) at 50, 150, 450 mg dosages, or placebo were administered on the morning of Day 1. Subjects fasted for 8 hours prior to the intake of study drug or placebo and for at least 4 hours following dosing.
The subject's body weight was measured on day −1 and at the follow up visit (day 7) using a validated balance. Body weight was recorded with 1 decimal.

[12] = oral gavage once daily 28 days, 20, 40, or 80 mg/kg/day
[13] = 450 mg single oral dose, day −1 to day 7

Structure (SMILES): CCCNc1nc(NC)nc2c(NCC(C)(C)O)nc(NC)nc12.Cl.Cl [Gal-475*2HCl, 1-(2,6-Bis-methylamino-8-propylamino-pyrimido[5,4-d]pyrimidin-4-ylamino)-2-methyl-propan-2-ol bis hydrochloride]
- decrease in food consumption ([1]; females): ≤ 98%
- decrease in body weight gain ([1]; females): ≤ 29.9%
- decrease in food consumption ([1]; males): up to 81%
- decrease in body weight gain ([1]; males): up to 22.7%
- body weight gain and food consumption during the recovery phase ([1]; recovery phase): comparable with the control

Structure (SMILES): CCCNc1nc(NC)nc2c(NCC(C)(C)O)nc(NC)nc12 [GAL475, 1-(2,6-Bis-methylamino-8-propylamino-pyrimido[5,4-d]pyrimidin-4-ylamino)-2-methyl-propan-2-ol]
- inhibition at 30 µM [2]: 75%
- inhibition at 30 µM [3]: 50.6%
- inhibition at 30 µM [4]: 79%
- % inhibition of the binding of radioactively labelled ligand [5]: 67.1%
- % inhibition of the binding of radioactively labelled ligand [6]: 75.1%
- Hill Coefficient [7]: 11.62
- % Activation Average at maximal concentration ([7]; CHO-K1-mt aequorin): 26.48%
- EC50 ([7]; CHO-K1-mt aequorin): 355 nM
- % Activation Average at maximal concentration [8]: 0.21%
- weight loss compared to vehicle ([9]; 40 mg/Kg body weight per day, 28 days): meaningful weight loss
- body weight gain during recovery phase compared to controls ([9]; 80 mg/kg/day, 2 weeks recovery phase): comparable or greater body weight gain
- group mean food consumption compared with control group ([9]; both sexes, >40 mg/kg/day, dosing phase): significant reduced
- food intake at the end of recovery phase ([9]; end of recovery phase): reversed
- overall body weight gain Day −1 to Day 28 compared to that of the controls ([9]; females): 79%
- group mean body weight compared to the controls ([9]; females): −4.70%
- overall body weight gain Day −1 to Day 28 compared to that of the controls ([9]; males): 71%
- group mean body weight compared to the controls ([9]; males): −7.35%
- test article-related adverse effects in clinical signs, food consumption, clinical pathology, or pathology [9, 12]: no test article-related adverse effects
- tolerability [9, 12]: well tolerated
- decrease in body weight compared to vehicle ([1]; 28 days): 25%
- food consumption compared to vehicle ([1]; 28 days): dramatic decrease
- gastric emptying compared to vehicle ([10]; p<0.05): significantly decreased
- gastric content retention higher compared to vehicle controls ([10]; up to 25 minutes after administration): up to 105%
- subjects with mild headaches on the day of capsule intake ([11]; 50 mg single oral dose): 2 of the 6
- subjects with mild headaches on the day of capsule intake ([11]; 150 mg single oral dose): 0 of the 6
- subjects with mild headaches on the day of capsule intake ([11]; 450 mg single oral dose): 5 of the 6
- change in body weight, average [11, 13]: -0.6 kg
- change in body weight, range [11, 13]: −0.1 to −1.6 kg
- tolerability ([11]; single oral dose 50, 150, 450 mg): well tolerated except for mild headaches
